Among the data in PubChem BioAssay AID651685 (The Scripps Research Institute Molecular Screening Center, 2012) are EC50 values, retold here.

As usually defined, the EC50 is the concentration giving half of the maximal effect.

Active and inactive are the calls of the source. How the calls were made is not given here.

For this assay, the target named is Mu-type opioid receptor (Homo sapiens) (UniProt P35372). The experiment in a line: mu-delta opioid heterodimer formation enhancers – cell-based, luminescence, dose response, late-stage follow-up (AID 651685). To be noted: cells, OPRM1-OPRD1 heterodimerization, luminescence complementation.
Chain of Mu-type opioid receptor (Homo sapiens) (P35372 whole entry, looked up): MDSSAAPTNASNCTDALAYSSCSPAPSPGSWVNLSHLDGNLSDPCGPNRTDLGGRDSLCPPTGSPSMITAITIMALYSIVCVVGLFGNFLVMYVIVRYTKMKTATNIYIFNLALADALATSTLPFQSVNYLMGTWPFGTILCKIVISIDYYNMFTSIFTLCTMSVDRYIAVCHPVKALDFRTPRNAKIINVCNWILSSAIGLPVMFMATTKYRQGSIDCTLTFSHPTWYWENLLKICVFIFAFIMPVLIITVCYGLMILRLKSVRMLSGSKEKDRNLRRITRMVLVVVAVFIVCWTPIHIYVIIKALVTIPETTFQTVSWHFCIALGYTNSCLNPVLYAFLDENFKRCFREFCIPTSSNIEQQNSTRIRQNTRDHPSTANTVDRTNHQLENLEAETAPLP
Turning to `CCOC(=O)C1(CCc2ccccc2)CCN(Cc2ccccc2C)CC1`, the concentration giving a half-maximal response (EC50) is 7 µM.

With `OCC1(CCc2ccccc2)CCN(Cc2cc(F)ccc2-n2cccn2)CC1`, the EC50 is > 40 µM (inactive).

`CCOC(=O)C1(CCc2ccccc2)CCN(Cc2cc(C)cc(C)c2)CC1`: the EC50 is > 40 µM (inactive).

As for `CCOC(=O)C1(CCOc2ccccc2)CCN(Cc2ccc(O)c(OC)c2)CC1`, the EC50 entry was “inactive”.

For the compound `CCOC(=O)C1(CCOc2ccccc2)CCN(Cc2cccn2-c2cccnc2)CC1`, the EC50 was 4.4 µM.

For `CCOC(=O)C1(CC2CCCCO2)CCN(Cc2c(C)cc(C)cc2-n2cccn2)CC1` (stereo unspecified), the concentration giving a half-maximal response (EC50) was 0.901 µM.

Take `CCOC(=O)C1(CCc2ccccc2)CCN(Cc2ccc(NC(C)=O)cc2)CC1`: the EC50 was 0.403 µM.

Consider `CCOC(=O)C1(CCc2ccccc2)CCN(Cc2ccc(OC(C)C)c(C#N)c2)CC1`, for which the EC50 was > 40 µM (inactive).

As for `CCOC(=O)C1(CCCc2ccccc2)CCN(Cc2cnn(C)c2)CC1`, the EC50 was 8.9 µM.

Turning to `CCOC(=O)C1(Cc2ccccc2)CCN(Cc2cccn2-c2nccs2)CC1`, the EC50 is > 40 µM (inactive).

As to `CCOC(=O)C1(Cc2ccccc2)CCN(Cc2cccn2-c2cccnc2)CC1`, the EC50 is > 40 µM (inactive).
